Laboratory results as given in PubChem BioAssay (NCI).
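The compound was tested at five concentrations on cells cultured in 96-well plates, with a 48-hour exposure period. At the GI50, growth is halved. TGI denotes the concentration required for complete inhibition of growth.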

Legend:
Test in all cases: inhibition of tumour cell growth, NCI panel, 48 h
SK-MEL-5 melanoma = system: SK-MEL-5 melanoma
HCT-116 colon = system: HCT-116 colon
COLO 205 colon = system: COLO 205 colon
RPMI-8226 leukemia = system: RPMI-8226 leukemia
SF-295 CNS = system: SF-295 CNS
U251 CNS = system: U251 CNS
EKVX NSCLC = system: EKVX NSCLC
UACC-62 melanoma = system: UACC-62 melanoma
SN12C renal = system: SN12C renal
KM12 colon = system: KM12 colon

| Structure (SMILES) | TGI (SK-MEL-5 melanoma) | TGI (HCT-116 colon) | TGI (COLO 205 colon) | TGI (RPMI-8226 leukemia) | TGI (SF-295 CNS) | TGI (U251 CNS) | TGI (EKVX NSCLC) | TGI (UACC-62 melanoma) | TGI (SN12C renal) | GI50 (SK-MEL-5 melanoma) | GI50 (RPMI-8226 leukemia) | GI50 (KM12 colon) | TGI (KM12 colon) | GI50 (EKVX NSCLC) | GI50 (UACC-62 melanoma) | GI50 (SN12C renal) | GI50 (SF-295 CNS) | GI50 (U251 CNS) | GI50 (HCT-116 colon) | GI50 (COLO 205 colon) |
| --- | --- | --- | --- | --- | --- | --- | --- | --- | --- | --- | --- | --- | --- | --- | --- | --- | --- | --- | --- | --- |
| Cc1cc(N(CCC#N)S(=O)(=O)c2ccccc2)ccc1C=Nc1cccc(C(=O)O)c1 | > 100 µM | > 100 µM | > 100 µM | > 100 µM | > 100 µM | > 100 µM | > 100 µM | > 100 µM | > 100 µM |  |  |  |  |  |  |  |  |  |  |  |
| Cc1c(C)c2c(c(C)c1OC(=O)CCC(=O)[O-])CCC(C)(CCCCCCCCCCC[P+](c1ccccc1)(c1ccccc1)c1ccccc1)O2 (stereo unspecified) | 0.182 µM |  |  | 0.148 µM |  |  | 1.45 µM | 0.727 µM | 0.615 µM | 0.0904 µM | 0.0151 µM | 0.177 µM | 0.705 µM | 0.222 µM | 0.177 µM | 0.165 µM |  |  |  |  |
| O=C([CH-]C(=O)c1ccccc1)c1ccccc1.[C-]#[O+].[C-]#[O+].[Ir] | > 100 µM |  |  |  | > 100 µM | > 100 µM | > 100 µM | > 100 µM | > 100 µM | 39.3 µM |  | 66.1 µM | > 100 µM | > 100 µM | 42.1 µM | 48.3 µM | 42.9 µM | 36.4 µM |  |  |
| CON(C)c1nc(N)c(C#N)c(C#N)c1C#N | > 10 µM | > 10 µM | > 10 µM | > 10 µM | > 10 µM | > 10 µM | > 10 µM | > 10 µM | > 10 µM |  |  |  | > 10 µM |  |  |  |  |  |  |  |
| C=C1CC[C@@]2(C)[C@@H]([C@@H]1C)[C@H]1CC[C@@H]3[C@@]4(C)CC[C@H](O)C(C)(C)[C@@H]4CC[C@@]3(C)[C@]1(C)C[C@@H]2O | > 50.3 µM | > 23.9 µM | > 100 µM | > 100 µM | 12.2 µM |  | 7.22 µM | 28.2 µM | > 100 µM |  |  |  | 15.8 µM |  |  |  |  |  |  |  |
| C1=N[C@]23C(=N[C@H](N=C2NCc2ccco2)[C@]24N=CNC2=N[C@H]3N=C4NCc2ccco2)N1 | > 100 µM | > 100 µM | > 100 µM | > 100 µM | > 100 µM | > 100 µM | > 100 µM | > 100 µM | > 100 µM | > 100 µM | > 100 µM | > 100 µM | > 100 µM | 89.5 µM | > 100 µM | > 100 µM | > 100 µM | > 100 µM | > 100 µM | > 100 µM |
| CC1(CO)C(O)CCC2(C)C1CCC1CC3CC12CCC3(O)CO (stereo unspecified) | > 100 µM | > 100 µM | > 100 µM | > 100 µM | > 100 µM | > 100 µM | > 100 µM | > 100 µM | > 100 µM |  |  |  | > 100 µM |  |  |  |  |  |  |  |
| COc1cccc(N/C(C)=C2/CCOC2=O)c1 | > 10 µM | > 10 µM | > 10 µM | > 10 µM | > 10 µM | > 10 µM | > 10 µM | > 10 µM | > 10 µM |  |  |  | > 10 µM |  |  |  |  |  |  |  |
| O=C(NN1C(=O)C(Cl)C1c1cccc(O)c1)c1ccccc1O (stereo unspecified) | > 100 µM | > 100 µM |  |  | > 100 µM | > 100 µM |  | > 100 µM | > 100 µM |  |  |  | > 100 µM |  |  |  |  |  |  |  |
